Source: US20080159962A1, “Use of Inhibitors of the Renin-Angiotensin System for the Treatment of Lung Injuries” (priority 2005, published 2008)
Like-named read-outs stand apart in the source and are kept apart here.

What was measured:
Format in all cases: in vivo
[1] = target: T1, BK2 (Mus musculus, UniProt P32299); test: Bradykinin receptor inhibitor study (BK2) in acid aspiration-induced ALI of ace2 KO mice; conditions: acid-treated ace2 KO mice, 1.5 mg/kg i.p. 30 min before surgical procedures, 3 hrs (FIG. 17)
T1 construct: from tissue; host or cells: live ace2 KO mice, lung elastance read-out
T1 sequence (P32299 1-392): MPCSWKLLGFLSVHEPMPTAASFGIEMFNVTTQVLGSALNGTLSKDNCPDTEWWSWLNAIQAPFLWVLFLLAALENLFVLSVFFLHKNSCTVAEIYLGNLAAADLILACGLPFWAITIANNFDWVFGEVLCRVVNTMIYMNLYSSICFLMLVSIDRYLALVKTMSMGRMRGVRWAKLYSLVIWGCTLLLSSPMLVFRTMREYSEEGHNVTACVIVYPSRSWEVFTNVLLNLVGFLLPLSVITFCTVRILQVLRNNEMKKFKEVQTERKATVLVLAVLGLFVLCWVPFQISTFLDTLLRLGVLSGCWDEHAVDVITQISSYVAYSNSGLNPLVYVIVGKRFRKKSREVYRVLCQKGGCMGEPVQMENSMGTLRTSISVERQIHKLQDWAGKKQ
Procedure: (§1) Murine acid aspiration-induced lung injury model: For acid aspiration-induced ALI, 2.5-3 month old mice were anaesthetized with ketamin (75 mg/kg) and xylazine (20 mg/kg) i.p., tracheostomized and ventilated with a volume control constant flow ventilator (Voltek Enterprises). Volume recruitment manoeuvre (VRM) (25 cmH2O, 3 sec) was performed to standardize volume history and measurements were made as baseline. After intratracheal instillation of HCl (pH=1.5; 2 ml/kg), followed by a VRM (35 cmH2O, 3 seconds), animals were ventilated for 3 hrs (FIO2 1.0). Total PEEP (PEEPt) and plateau pressure (Pplat) were measured at the end of expiratory and inspiratory occlusion, respectively, and elastance was calculated as Pplat minus PEEPt)/VT every 30 minutes during the ventilation periods.
Bradykinin receptors inhibitor studies: Ace2 KO mice (2.5-3 months old) received the BK1 inhibitor (des Arg HOE, Sigma, 1.5 mg/kg), the BK2 inhibitor (HOE 140, Sigma, 1.5 mg/kg), or control vehicle i.p. 30 min before surgical procedures. After HCl instillation, animals were randomized into groups: (1) ace2 KO, acid, vehicle control; (2) ace2 KO, acid, BK1 inhibitor; (3) ace2 KO, acid, BK2 inhibitor. Animals were then ventilated for 3 hrs and analyzed as above.

[2] = target: T2, AT1R (Mus musculus, UniProt P29754)
T2 sequence (P29754 whole entry): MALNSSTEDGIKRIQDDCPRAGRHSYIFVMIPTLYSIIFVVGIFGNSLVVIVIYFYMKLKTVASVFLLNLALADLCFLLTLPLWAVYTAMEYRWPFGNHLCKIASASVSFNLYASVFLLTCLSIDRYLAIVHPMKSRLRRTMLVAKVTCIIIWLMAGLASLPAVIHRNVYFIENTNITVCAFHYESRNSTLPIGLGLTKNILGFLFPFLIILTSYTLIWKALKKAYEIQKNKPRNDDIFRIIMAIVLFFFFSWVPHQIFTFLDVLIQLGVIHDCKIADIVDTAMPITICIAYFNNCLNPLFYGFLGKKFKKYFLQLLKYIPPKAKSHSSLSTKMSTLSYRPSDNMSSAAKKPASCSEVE

[3] = target: T2, AT1R; test: AT1R inhibitor study in acid-induced ALI of ace2 KO mice; conditions: acid-treated ace2 KO mice
Procedure: as §1, with “Experimental murine ALI models:” for “Murine acid aspiration-induced lung injury model:”, “Enterprises, Canada).” for “Enterprises).”, “Saline-treated groups served as controls. […] All animals were monitored throughout an 18-hrs recovery period. […] In all experimental ALI models, total” for “Total”, “periods. […]” for “periods.”
Assessment of blood oxygenation, pulmonary oedema, and pulmonary vascular permeability: At the end of the experiments, blood samples were obtained from the left heart ventricle and PaO2 was measured (Ciba-Corning Model 248, Bayer, Leverkusen, Germany) to assess arterial blood oxygenation as an indicator for respiratory failure. To assess pulmonary oedemas, the lung wet/dry weight ratios were calculated. […]

[4] = target: T3, AT2R (Mus musculus, UniProt P35374); test: AT2R inhibitor study in acid-induced ALI of ace2 KO mice; conditions: acid-treated ace2 KO mice, 15 mg/kg i.p., 3 hrs (FIG. 10b)
T3 construct: from tissue; host or cells: live ace2 KO mice, lung elastance read-out
T3 sequence (P35374 1-363): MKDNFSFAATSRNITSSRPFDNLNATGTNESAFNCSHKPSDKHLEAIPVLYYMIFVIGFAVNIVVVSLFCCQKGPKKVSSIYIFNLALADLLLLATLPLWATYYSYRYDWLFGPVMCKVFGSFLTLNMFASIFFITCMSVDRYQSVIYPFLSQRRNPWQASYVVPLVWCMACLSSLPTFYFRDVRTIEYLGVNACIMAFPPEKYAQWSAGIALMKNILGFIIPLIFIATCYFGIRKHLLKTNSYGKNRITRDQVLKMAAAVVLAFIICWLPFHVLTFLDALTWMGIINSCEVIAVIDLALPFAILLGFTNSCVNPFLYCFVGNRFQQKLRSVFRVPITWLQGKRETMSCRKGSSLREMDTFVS
Procedure: as §1, with “Experimental murine ALI models:” for “Murine acid aspiration-induced lung injury model:”, “Enterprises, Canada).” for “Enterprises).”, “Saline-treated groups served as controls. […] All animals were monitored throughout an 18-hrs recovery period. […] In all experimental ALI models, total” for “Total”, “periods. […]” for “periods.”
AT1R/AT2R inhibitor studies: Mice (2.5-3 months old) received the AT1R inhibitor Losartan (15 mg/kg), the AT2R inhibitor PD123.319 (15 mg/kg), or control vehicle i.p. 30 min before surgical procedures. […] Animals were then ventilated for 3 hrs and analyzed as above.

For `NC(N)=NCCC[C@@H](N)C(=O)N[C@@H](CCCN=C(N)N)C(=O)N1CCC[C@H]1C(=O)N1C[C@H](O)C[C@H]1C(=O)NCC(=O)N[C@@H](Cc1cccs1)C(=O)N[C@@H](CO)C(=O)N1Cc2ccccc2C[C@@H]1C(=O)N1[C@H](C(=O)N[C@@H](CCCN=C(N)N)C(=O)O)C[C@@H]2CCCC[C@@H]21` [BK2 inhibitor, DArg[Hyp^3,Thi^5,DTic^7,Oic^8]-bradykinin], the “lung failure assessed by pulmonary elastance” value [1] was “improved the lung failure”.
For `CCCCc1nc(Cl)c(CO)n1Cc1ccc(-c2ccccc2-c2nn[nH]n2)cc1` [Losartan], the “acute severe lung injury (lung elastance)” value ([2]; acid plus Spike-Fc challenged WT mice, 15 mg/kg (FIG. 5c)) was “attenuates SARS Spike-mediated severe acute lung injury”, the “acute severe lung injury (lung elastance)” value ([2]; mouse, in vivo) was “attenuated acute severe lung injury” and the “pulmonary oedema (wet to dry weight ratio)” value ([2]; mouse, in vivo) was “attenuated pulmonary oedema”. The “severity of ALI (lung elastance)” value ([3]; 15 mg/kg i.p. 30 min before surgical procedures, 3 hrs (FIG. 10b)) was “attenuated the severity of ALI” and the “acid-induced pulmonary oedema (wet to dry weight ratio)” value ([3]; 15 mg/kg, 3 hrs (FIG. 16b)) was “attenuated acid-induced pulmonary oedema”.
For `Cc1cc(Cn2cnc3c2C[C@@H](C(=O)O)N(C(=O)C(c2ccccc2)c2ccccc2)C3)ccc1N(C)C` [PD123.319], the “severe acute lung injury phenotypes (lung elastance)” value [4] was “had no apparent effect”.
